A short description of this data set: solvent given as SMILES.

Molecules are shown by their SMILES.

For the molecule `COc1cccc(C2=c3c(c4ccc(C(C)(C)C)cc4c4cc(C(C)(C)C)ccc34)=[N+]3C2=C(c2ccccc2)c2c(-c4cccc(OC)c4)c4c5ccc(C(C)(C)C)cc5c5cc(C(C)(C)C)ccc5c4n2[B-]3(F)F)c1`, the absorption maximum runs as follows: (in C1CCCCC1) 680 nm; (in C1CCOC1) 677 nm; (in CC#N) 670 nm; (in Cc1ccccc1) 682 nm; (in ClCCl) 677 nm.
Under “in ClC(Cl)Cl”, `CCC1=C(CC)C(C)=[N+]2C1=Cc1c(C)c3cc4c(cc3n1[B-]2(F)F)=[N+]1C(=Cc2c(CC)c(CC)c(C)n2[B-]1(F)F)C=4C` gave an absorption maximum of 692 nm.
Consider `CC1=CC(c2ccc3ccccc3c2)=[O+][B-]2(OC(=O)C(=O)O2)O1`, for which the absorption maximum worked out at 400 nm (in CC#N) and 400 nm (in ClC(Cl)(Cl)Cl).
Molecule `CCN(C(C)=O)c1cc2c(cc1C)C(c1ccccc1C(=O)O)=C1CCCC(/C=C/C3=[N+](C)c4ccccc4C3(C)C)=C1O2` yielded an absorption maximum (in CCO) of 656 nm.
Take `CCOC(=O)c1ccccc1-c1c2ccc(=O)cc-2oc2cc(OC(=O)[C@H](CO[Si](C)(C)C(C)(C)C)NC(=O)OC(C)(C)C)ccc12`: the absorption maximum is, setting by setting: (in C1CCOC1) 428 nm; (in CC#N) 445 nm; (in CCO) 433 nm; (in CS(C)=O) 449 nm.
Where the note is “in CS(C)=O”, `COc1ccc(-c2c3nc(cc4ccc([nH]4)c(-c4ccc(OC)c(OCC(=O)O)c4)c4nc(cc5ccc2[nH]5)CC4)C=C3)cc1OCC(=O)O` came in with an absorption maximum of 644 nm.
For the molecule `COc1ccc(N(c2ccccc2)c2ccccc2)cc1`, the absorption maximum (in Cc1ccccc1) was found to be 299 nm.
Molecule `COc1ccc(-c2nc(-c3ccc(OC)cc3)c(-c3ccc(OC)cc3)[nH]2)cc1` returned an absorption maximum (in CO) of 295 nm.
The molecule `CCCCC(CC)COc1cc(OCC(CC)CCCC)c2c#cc3ccc4sc5ccc(c#cc6cc(c#cc7ccc8sc9ccc(c#cc1c2)cc9c8c7)c(C(CCCC)OCCC)cc6C(CCCC)OCCC)cc5c4c3` (centres undefined) showed an absorption maximum (in ClCCl) of 333 nm.
Take `CC1=CC(C)=[N+]2C1=C(c1ccc(N3CCOCC3)cc1)c1c(C)cc(C)n1[B-]2(F)F`: the absorption maximum reads like this: (in C1CCOC1) 500 nm; (in CC#N) 496 nm; (in CC(=O)C(C)(C)C) 495 nm; (in CC(C)=O) 490 nm; (in CCCCCC) 498 nm; (in CCOC(C)=O) 498 nm. The molecule further came in with an absorption maximum (in CO) of 494 nm.
`C[Si](C)(C)c1ccc(-c2ccc(-c3ccc(-c4ccc(-c5ccc([Si](C)(C)C)s5)s4)c4nsnc34)s2)s1` registered an absorption maximum (in C1CCOC1) of 513 nm.
Turning to `C(=C\c1nc2ccccc2[nH]1)/c1ccc(/C=C/c2nc3ccccc3[nH]2)cc1`, the absorption maximum is 389 nm (in C1CCOC1); 382 nm (in CC#N); 395 nm (in CC(C)=O); 390 nm (in CN(C)C=O); 384 nm (in CO); 392 nm (in CS(C)=O).
As for `COC(=O)c1c(NC(C)(C)C)oc(-c2ccc(-c3ccccc3)cc2)c1C(=O)OC`, the absorption maximum (in CC#N) was determined as 355 nm.
In turn, `N#C/C(=C\c1cn(-c2ccccc2)nc1-c1ccccc1)c1nc2ccccc2s1` gave an absorption maximum (in C1CCOC1) of 381 nm; an absorption maximum (in C1COCCO1) of 381 nm; an absorption maximum (in CCO) of 380 nm; an absorption maximum (in CCOC(C)=O) of 380 nm; an absorption maximum (in CN(C)C=O) of 388 nm; an absorption maximum (in CO) of 377 nm. This molecule gave an absorption maximum (in CS(C)=O) of 382 nm, an absorption maximum (in Cc1ccccc1) of 387 nm, an absorption maximum (in ClC(Cl)Cl) of 383 nm and an absorption maximum (in ClCCl) of 380 nm.
With `CC(C)c1ccc(-c2nc(-c3ccccc3)c3ccccn23)cc1`, for the setting “in CC#N”, the absorption maximum came out at 380 nm.
For `CCCCN(CCCC)c1ccc(C#Cc2cc(C#Cc3ccc(N(CCCC)CCCC)cc3)c(C#Cc3ccc([N+](=O)[O-])cc3)cc2C#Cc2ccc([N+](=O)[O-])cc2)cc1`, the absorption maximum (in ClCCl) came to 426 nm.
Where the note is “in CC#N”, `COC(=O)C1=NNC(C(=O)OC)=C2c3ccccc3C(=O)c3ccccc3C12` (centres undefined) returned an absorption maximum of 391 nm.
In turn, `O=C1c2ccccc2-c2nc3c4ccccc4c4ccccc4c3n21` gave an absorption maximum (in ClCCl) of 441 nm.
On to `CN(C)c1ccc(-c2nc3nccnc3n2-c2ccc(N(C)C)cc2)cc1`, for which the absorption maximum (in CC#N) was 371 nm.
Where the note is “in ClCCl”, `c1ccc(-n2c3ccccc3c3cc(-n4ccc5cc(-c6cccc7c6-c6ccccc6C7(c6ccccc6)c6ccccc6)ccc54)ccc32)cc1` returned an absorption maximum of 325 nm.
Take `C(=C\c1ccncn1)/c1ccc(-c2ccc(N(c3ccccc3)c3ccccc3)cc2)cc1`: the absorption maximum was 381 nm (in C1CCOC1), 381 nm (in CC#N), 373 nm (in CCCCCCC) and 393 nm (in CS(C)=O).
Under “in CC#N”, `CCOC(=O)c1c2c3c(cccc3c3cc4ccccc4cc13)N(C)C2=O` showed an absorption maximum of 398 nm.
For the setting “in ClCCl”, `COC(=O)c1[nH]c(-c2ccc([N+](=O)[O-])cc2)c2nnc3ccc(OC)cc3c12` showed an absorption maximum of 436 nm.
With `CCCCCCCCc1ccc(-c2c3cc(-c4cc(CCCCCCCC)c(-c5ccc(-c6sc(/C=C7\SC(=S)N(CC)C7=O)cc6CCCCCCCC)s5)s4)sc3c(-c3ccc(CCCCCCCC)s3)c3cc(-c4cc(CCCCCCCC)c(-c5ccc(-c6sc(/C=C7\SC(=S)N(CC)C7=O)cc6CCCCCCCC)s5)s4)sc23)s1`, the absorption maximum (in ClC(Cl)Cl) is reported as 509 nm.
For the molecule `Cc1cc(C)c(C2=C3C=CC4=[N+]3[B-]3(Oc5ccccc54)Oc4ccccc4-c4ccc2n43)c(C)c1` (centres undefined), the absorption maximum (in ClC(Cl)Cl) was determined as 626 nm.
Under “in ClCCl”, `CCCCCCN1C(=O)c2cccc3c(-c4ccc(-c5cc(-c6ccccc6)nn5-c5ccccc5)s4)ccc(c23)C1=O` showed an absorption maximum of 388 nm.
Molecule `c1ccc2c(P(c3c4ccccc4cc4ccccc34)c3c4ccccc4cc4ccccc34)c3ccccc3cc2c1` returned an absorption maximum (in C1CCOC1) of 437 nm.
Under “in Cc1ccccc1”, `COc1ccc(C2=C(c3ccc(F)cc3)C(c3ccccc3)=[N+]3C2=Nc2c(-c4ccc(OC)cc4)c(-c4ccc(F)cc4)c(-c4ccccc4)n2[B-]3(F)F)cc1` registered an absorption maximum of 653 nm.
In turn, `CCCCN1C(=O)C2=C(c3ccc(Br)cc3)[N-]C(=O)C2=C1c1ccc(Br)cc1` came in with an absorption maximum (in ClCCl) of 571 nm.
As for `COc1ccc(C2=[N+]3C(=Nc4c(-c5ccc6ccccc6c5)cc(-c5ccc(OC)cc5)n4[B-]3(F)F)C(c3ccc4ccccc4c3)=C2)cc1`, the absorption maximum (in ClCCl) is reported as 704 nm.
`CCN(C)c1ccc(C2=C3C(C)=CC(/C=C/c4ccc(OCC(=O)OC)cc4)=[N+]3[B-](F)(F)n3c(C)cc(C)c32)cc1` came in with an absorption maximum (in CO) of 567 nm.
For the setting “in ClC(Cl)Cl”, `N#CC1=CC=CC(C#N)=P1(c1ccccc1)c1ccccc1` came in with an absorption maximum of 458 nm.
For the setting “in CCO”, `C#Cc1ccc2c(C)cc(=O)oc2c1` had an absorption maximum of 325 nm.
Where the note is “in ClCCl”, `CC(C)(C)c1ccc(-c2cc(-c3ccc(-c4cc(-c5ccc(C(C)(C)C)cc5)c(C(=O)NCc5ccccc5)s4)s3)sc2C(=O)NCc2ccccc2)cc1` came in with an absorption maximum of 394 nm.
`CC(C)(C)N1C(=O)c2c(cc3ccc4cccc5ccc2c3c45)C1O` (centres undefined) showed an absorption maximum (in ClC(Cl)Cl) of 385 nm.
Take `CSc1ccc2c(c1)N(CCCN1CCN(C)CN1C)c1ccccc1S2`: the absorption maximum amounted to 316 nm (in CC#N), 314 nm (in CO) and 312 nm (in O).
